Data from ChEMBL document CHEMBL3525934 (Drug Metab Dispos, 2013).

Assays:
Type in all cases: ADME
Conditions in all cases: 0.5 h
Cytochrome P450 2C9 [1] = biological target: T1, Cytochrome P450 2C9 (Homo sapiens, UniProt P11712); experiment: Drug metabolism in supersomes expressing human recombinant CYP2C9 assessed as enzyme-mediated N-desmethylclozapine metabolite formation at 10 uM after 30 mins measured per nmol of P450 by HPLC analysis
Cytochrome P450 1A2 [2] = biological target: T2, Cytochrome P450 1A2 (Homo sapiens, UniProt P05177); experiment: Drug metabolism in supersomes expressing human recombinant CYP1A2 assessed as enzyme-mediated total GSH conjugate formation at 10 uM after 30 mins measured per nmol of P450 by HPLC analysis in presence of GSH and hGST P1-1
T2 sequence (P05177 whole entry): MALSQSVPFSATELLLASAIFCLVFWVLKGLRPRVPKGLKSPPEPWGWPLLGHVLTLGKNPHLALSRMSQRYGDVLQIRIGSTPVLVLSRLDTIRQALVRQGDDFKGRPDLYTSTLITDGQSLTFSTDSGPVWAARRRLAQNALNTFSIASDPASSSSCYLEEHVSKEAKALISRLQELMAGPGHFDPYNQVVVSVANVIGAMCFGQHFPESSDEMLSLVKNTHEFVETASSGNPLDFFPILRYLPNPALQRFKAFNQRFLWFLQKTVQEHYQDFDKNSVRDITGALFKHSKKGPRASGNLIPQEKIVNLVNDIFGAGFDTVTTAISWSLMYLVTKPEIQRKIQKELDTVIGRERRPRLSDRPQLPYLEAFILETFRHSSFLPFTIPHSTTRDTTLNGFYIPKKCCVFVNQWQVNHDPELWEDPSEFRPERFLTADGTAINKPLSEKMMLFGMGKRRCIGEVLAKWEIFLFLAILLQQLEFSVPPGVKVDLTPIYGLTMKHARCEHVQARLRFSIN

Cytochrome P450 1B1 [3] = biological target: T3, Cytochrome P450 1B1 (Homo sapiens, UniProt Q16678); experiment: Drug metabolism in supersomes expressing human recombinant CYP1B1 assessed as enzyme-mediated cyanide adduct formation at 100 uM after 30 mins measured per nmol of P450 by HPLC analysis in presence of KCN
T3 sequence (Q16678 whole entry): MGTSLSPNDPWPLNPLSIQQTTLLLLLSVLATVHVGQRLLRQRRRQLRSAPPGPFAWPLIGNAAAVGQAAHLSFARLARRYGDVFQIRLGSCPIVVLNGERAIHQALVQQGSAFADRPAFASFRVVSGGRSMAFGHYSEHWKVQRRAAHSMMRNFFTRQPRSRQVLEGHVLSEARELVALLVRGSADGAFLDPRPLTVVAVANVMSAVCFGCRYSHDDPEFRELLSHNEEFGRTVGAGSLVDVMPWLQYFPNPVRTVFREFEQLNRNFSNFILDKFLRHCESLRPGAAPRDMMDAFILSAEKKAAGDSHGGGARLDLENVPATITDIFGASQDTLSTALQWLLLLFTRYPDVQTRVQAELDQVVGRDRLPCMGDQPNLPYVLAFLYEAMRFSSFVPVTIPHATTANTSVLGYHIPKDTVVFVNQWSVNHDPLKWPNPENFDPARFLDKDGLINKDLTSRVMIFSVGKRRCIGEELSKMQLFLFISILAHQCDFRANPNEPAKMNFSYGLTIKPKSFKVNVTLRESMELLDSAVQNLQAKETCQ

Cytochrome P450 2C8 = biological target: T4, Cytochrome P450 2C8 (Homo sapiens, UniProt P10632); experiment: Drug metabolism in supersomes expressing human recombinant CYP2C8 assessed as enzyme-mediated N-desmethylclozapine metabolite formation at 100 uM after 30 mins measured per nmol of P450 by HPLC analysis
T4 sequence (P10632 whole entry): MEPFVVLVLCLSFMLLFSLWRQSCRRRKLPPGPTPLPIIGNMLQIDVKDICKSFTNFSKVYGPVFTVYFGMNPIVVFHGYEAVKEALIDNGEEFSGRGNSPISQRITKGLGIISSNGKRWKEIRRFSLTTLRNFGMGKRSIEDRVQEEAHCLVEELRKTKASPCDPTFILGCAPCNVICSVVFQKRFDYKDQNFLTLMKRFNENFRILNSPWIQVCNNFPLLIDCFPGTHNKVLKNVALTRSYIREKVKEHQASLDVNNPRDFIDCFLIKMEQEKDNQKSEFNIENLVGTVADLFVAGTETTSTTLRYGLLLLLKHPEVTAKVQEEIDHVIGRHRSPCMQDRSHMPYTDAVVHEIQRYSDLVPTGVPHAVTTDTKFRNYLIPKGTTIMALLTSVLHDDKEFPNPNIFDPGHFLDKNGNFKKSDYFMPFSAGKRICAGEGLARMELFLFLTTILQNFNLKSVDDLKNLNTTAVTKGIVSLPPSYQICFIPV

Cytochrome P450 1A2 [4] = biological target: T2, Cytochrome P450 1A2; experiment: Drug metabolism in supersomes expressing human recombinant CYP1A2 assessed as enzyme-mediated N-desmethylclozapine metabolite formation at 100 uM after 30 mins measured per nmol of P450 by HPLC analysis
Cytochrome P450 1A1 = biological target: T5, Cytochrome P450 1A1 (Homo sapiens, UniProt P04798); experiment: Drug metabolism in supersomes expressing human recombinant CYP1A1 assessed as enzyme-mediated clozapine-N-oxide metabolite formation at 10 uM after 30 mins measured per nmol of P450 by HPLC analysis
T5 sequence (P04798 whole entry): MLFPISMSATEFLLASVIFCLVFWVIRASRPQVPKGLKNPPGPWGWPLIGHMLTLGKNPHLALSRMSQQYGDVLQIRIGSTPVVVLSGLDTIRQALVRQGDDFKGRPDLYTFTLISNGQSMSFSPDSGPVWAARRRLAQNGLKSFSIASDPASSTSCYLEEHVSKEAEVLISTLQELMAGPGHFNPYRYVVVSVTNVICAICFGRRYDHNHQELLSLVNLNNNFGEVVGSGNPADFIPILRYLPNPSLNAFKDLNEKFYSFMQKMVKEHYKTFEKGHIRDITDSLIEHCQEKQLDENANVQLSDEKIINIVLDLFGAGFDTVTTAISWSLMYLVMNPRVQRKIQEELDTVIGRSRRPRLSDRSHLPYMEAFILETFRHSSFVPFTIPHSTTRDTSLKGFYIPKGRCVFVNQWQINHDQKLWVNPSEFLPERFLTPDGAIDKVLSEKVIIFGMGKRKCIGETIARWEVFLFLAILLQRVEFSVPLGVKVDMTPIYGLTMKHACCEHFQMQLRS

Cytochrome P450 2C9 [5] = biological target: T1, Cytochrome P450 2C9; experiment: Drug metabolism in supersomes expressing human recombinant CYP2C9 assessed as enzyme-mediated cyanide adduct formation at 100 uM after 30 mins measured per nmol of P450 by HPLC analysis in presence of KCN
Cytochrome P450 2C9 [6] = biological target: T1, Cytochrome P450 2C9; experiment: Drug metabolism in supersomes expressing human recombinant CYP2C9 assessed as enzyme-mediated clozapine-N-oxide metabolite formation at 100 uM after 30 mins measured per nmol of P450 by HPLC analysis
Cytochrome P450 1B1 [7] = biological target: T3, Cytochrome P450 1B1; experiment: Drug metabolism in supersomes expressing human recombinant CYP1B1 assessed as enzyme-mediated total GSH conjugate formation at 10 uM after 30 mins measured per nmol of P450 by HPLC analysis in presence of GSH and hGST P1-1

T1 sequence (P11712 whole entry): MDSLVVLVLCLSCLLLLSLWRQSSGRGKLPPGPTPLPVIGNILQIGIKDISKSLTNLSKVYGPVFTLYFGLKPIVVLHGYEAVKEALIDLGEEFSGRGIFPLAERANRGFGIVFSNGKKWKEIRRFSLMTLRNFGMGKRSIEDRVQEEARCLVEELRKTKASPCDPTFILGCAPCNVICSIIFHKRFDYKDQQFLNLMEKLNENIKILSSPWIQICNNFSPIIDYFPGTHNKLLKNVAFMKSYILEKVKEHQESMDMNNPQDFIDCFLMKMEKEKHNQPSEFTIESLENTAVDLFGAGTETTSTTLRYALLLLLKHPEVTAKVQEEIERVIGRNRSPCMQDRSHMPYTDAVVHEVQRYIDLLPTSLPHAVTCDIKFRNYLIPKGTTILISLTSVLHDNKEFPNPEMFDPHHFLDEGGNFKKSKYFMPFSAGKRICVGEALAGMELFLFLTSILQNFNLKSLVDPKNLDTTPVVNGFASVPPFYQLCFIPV

CN1CCN(C2=Nc3cc(Cl)ccc3Nc3ccccc32)CC1 [CLOZAPINE]
Drug metabolism (Cytochrome P450 2C9 [1]): 0.33 nmol/min | Drug metabolism (Cytochrome P450 1A2 [2]): 0.06 nmol/min | Drug metabolism (Cytochrome P450 1B1 [3]): 0.01 nmol/min | Drug metabolism (Cytochrome P450 2C8): 0.89 nmol/min | Drug metabolism (Cytochrome P450 1A2 [4]): 8.71 nmol/min | Drug metabolism (Cytochrome P450 1A1): 0.24 nmol/min | Drug metabolism (Cytochrome P450 2C9 [5]): 0.01 nmol/min | Drug metabolism (Cytochrome P450 2C9 [6]): 0.057 nmol/min | Drug metabolism (Cytochrome P450 1B1 [7]): 0.15 nmol/min
